Values joined by “and” are separate entries in the source; they are usually repeats but may differ in a detail not shown here. Equal values may be shown once. HELM strings list units from the 5' end as sugar, base in round brackets, then linkage (d deoxyribose, r ribose, m 2'-O-methyl, p phosphodiester). Strings are as the collection lists them, not checked against the first reports. ss, as = sense and antisense strand; [lna] = locked nucleic acid (LNA); [una] = unlocked nucleic acid; [hna] = hexitol nucleic acid; [s4r] = 4'-thioribose; [fl2r] = 2'-fluoro
Settings: siRNA
Also: test system not given here.

Substance	target mRNA knockdown
RNA1{r(A)p.r(G)p.r(A)p.r(G)p.r(G)p.r(A)p.r(C)p.r(C)p.m(U)p.r(A)p.r(G)p.r(A)p.r(A)p.r(G)p.r(G)p.r(C)p.r(G)p.r(G)p.r(C)p.r(T)p.r(T)}|RNA2{r(G)p.r(C)p.r(C)p.r(G)p.r(C)p.r(C)p.r(U)p.r(U)p.r(C)p.m(U)p.r(A)p.r(G)p.r(G)p.r(U)p.r(C)p.r(C)p.r(U)p.r(C)p.r(U)p.r(T)p.r(T)}$$$RNA1{StrandType:ss}|RNA2{StrandType:as}$	89%
RNA1{r(C)p.r(U)p.r(C)p.r(C)p.r(U)p.r(U)p.m(C)p.r(A)p.r(U)p.r(U)p.r(C)p.m(C)p.r(A)p.r(G)p.r(C)p.r(C)p.m(U)p.r(A)p.r(U)p.r(T)p.r(T)}|RNA2{r(A)p.m(U)p.r(A)p.r(G)p.r(G)p.r(C)p.m(U)p.r(G)p.r(G)p.r(A)p.r(A)p.m(U)p.r(G)p.r(A)p.r(A)p.r(G)p.r(G)p.r(A)p.r(G)p.r(T)p.r(T)}$$$RNA1{StrandType:ss}|RNA2{StrandType:as}$	78%
RNA1{r(C)p.r(G)p.m(C)p.r(C)p.r(C)p.m(C)p.r(C)p.r(C)p.r(U)p.m(C)p.r(A)p.r(A)p.r(G)p.r(C)p.m(U)p.r(A)p.r(C)p.r(C)p.r(G)p.r(T)p.r(T)}|RNA2{r(C)p.r(G)p.r(G)p.m(U)p.r(A)p.r(G)p.r(C)p.r(U)p.m(U)p.r(G)p.r(A)p.r(G)p.r(G)p.r(G)p.r(G)p.r(G)p.r(G)p.r(C)p.r(G)p.r(T)p.r(T)}$$$RNA1{StrandType:ss}|RNA2{StrandType:as}$	72%
RNA1{r(C)p.r(U)p.r(C)p.r(U)p.r(C)p.r(C)p.r(U)p.[fl2r](A)p.r(C)p.r(C)p.r(U)p.r(U)p.r(C)p.r(U)p.r(C)p.r(C)p.r(U)p.r(C)p.r(U)p.r(T)p.r(T)}|RNA2{r(A)p.r(G)p.r(A)p.r(G)p.r(G)p.r(A)p.r(G)p.r(A)p.r(A)p.r(G)p.r(G)p.r(U)p.r(A)p.r(G)p.r(G)p.r(A)p.r(G)p.r(A)p.r(G)p.r(T)p.r(T)}$$$RNA1{StrandType:ss}|RNA2{StrandType:as}$	78%
RNA1{[s4r](A)p.[s4r](A)p.[s4r](A)p.[s4r](C)p.r(A)p.r(U)p.r(G)p.r(C)p.r(A)p.r(G)p.r(A)p.r(A)p.r(A)p.r(A)p.r(U)p.[s4r](G)p.[s4r](C)p.[s4r](U)p.[s4r](G)p.r(T)p.r(T)}|RNA2{r(C)p.r(A)p.r(G)p.r(C)p.r(A)p.r(U)p.r(U)p.r(U)p.r(U)p.r(C)p.r(U)p.r(G)p.r(C)p.r(A)p.r(U)p.[s4r](G)p.[s4r](U)p.[s4r](U)p.[s4r](U)p.r(T)p.r(T)}$$$RNA1{StrandType:ss}|RNA2{StrandType:as}$	91%
RNA1{r(A)p.r(U)p.m(C)p.r(A)p.r(G)p.r(A)p.r(G)p.r(G)p.r(G)p.r(A)p.r(G)p.r(G)p.r(U)p.r(C)p.r(U)p.m(U)p.r(A)p.r(G)p.r(A)p.r(T)p.r(T)}|RNA2{r(U)p.r(C)p.m(U)p.r(A)p.r(A)p.r(G)p.r(A)p.r(C)p.r(C)p.r(U)p.r(C)p.r(C)p.r(C)p.r(U)p.r(C)p.m(U)p.r(G)p.r(A)p.r(U)p.r(T)p.r(T)}$$$RNA1{StrandType:ss}|RNA2{StrandType:as}$	68%
RNA1{r(A)p.r(C)p.r(G)p.r(U)p.m(C)p.r(A)p.r(C)p.r(C)p.r(G)p.r(A)p.r(G)p.r(G)p.r(A)p.r(G)p.r(A)p.r(A)p.r(G)p.r(U)p.r(A)p.r(T)p.r(T)}|RNA2{m(U)p.r(A)p.r(C)p.r(U)p.r(U)p.r(C)p.r(U)p.r(C)p.r(C)p.r(U)p.r(C)p.r(G)p.r(G)p.m(U)p.r(G)p.r(A)p.r(C)p.r(G)p.r(U)p.r(T)p.r(T)}$$$RNA1{StrandType:ss}|RNA2{StrandType:as}$	80%
RNA1{r(A)p.r(A)p.r(A)p.r(C)p.r(G)p.m(U)p.r(G)p.r(A)p.r(C)p.r(U)p.r(U)p.m(U)p.r(G)p.r(G)p.r(U)p.r(U)p.r(C)p.m(C)p.r(U)p.r(T)p.r(T)}|RNA2{r(A)p.r(G)p.r(G)p.r(A)p.r(A)p.r(C)p.m(C)p.r(A)p.r(A)p.r(A)p.r(G)p.r(U)p.m(C)p.r(A)p.r(C)p.r(G)p.r(U)p.r(U)p.r(U)p.r(T)p.r(T)}$$$RNA1{StrandType:ss}|RNA2{StrandType:as}$	82%
RNA1{r(C)p.r(G)p.r(U)p.r(A)p.r(C)p.r(G)p.r(C)p.r(G)p.r(G)p.r(A)p.r(A)p.r(U)p.r(A)p.r(C)p.r(U)p.r(U)p.r(C)p.r(G)p.r(A)p.r(T)p.r(T)}|RNA2{[s4r](U)p.[s4r](C)p.[s4r](G)p.[s4r](A)p.[s4r](A)p.[s4r](G)p.r(U)p.r(A)p.r(U)p.r(U)p.r(C)p.r(C)p.r(G)p.r(C)p.r(G)p.r(U)p.r(A)p.r(C)p.r(G)p.r(T)p.r(T)}$$$RNA1{StrandType:ss}|RNA2{StrandType:as}$	70.9%
RNA1{[s4r](A)p.[s4r](A)p.r(A)p.r(C)p.r(A)p.r(U)p.r(G)p.r(C)p.r(A)p.r(G)p.r(A)p.r(A)p.r(A)p.r(A)p.r(U)p.r(G)p.r(C)p.r(U)p.r(G)p.r(T)p.r(T)}|RNA2{r(C)p.r(A)p.r(G)p.r(C)p.r(A)p.r(U)p.r(U)p.r(U)p.r(U)p.r(C)p.r(U)p.r(G)p.r(C)p.r(A)p.r(U)p.r(G)p.r(U)p.[s4r](U)p.[s4r](U)p.r(T)p.r(T)}$$$RNA1{StrandType:ss}|RNA2{StrandType:as}$	72.4%
RNA1{r(A)p.r(U)p.r(C)p.r(U)p.r(G)p.r(A)p.r(A)p.r(G)p.r(A)p.r(A)p.r(G)p.r(G)p.r(A)p.r(G)p.r(A)p.r(A)p.r(A)p.r(A)p.r(A)p.r(T)p.r(T)}|RNA2{r(U)p.r(U)p.r(U)p.r(U)p.r(U)p.r(C)p.r(U)p.r(C)p.r(C)p.r(U)p.r(U)p.r(C)p.r(U)p.r(U)p.r(C)p.r(A)p.r(G)p.r(A)p.r(U)p.[lna](T)p.[lna](T)}$$$RNA1{StrandType:ss}|RNA2{StrandType:as}$	90%
RNA1{r(C)p.r(G)p.r(U)p.r(A)p.r(C)p.r(G)p.r(C)p.r(G)p.r(G)p.r(A)p.r(A)p.r(U)p.r(A)p.r(C)p.r(U)p.r(U)p.r(C)p.r(G)p.r(A)p.r(T)p.r(T)}|RNA2{r(U)p.r(C)p.r(G)p.r(A)p.r(A)p.r(G)p.r(U)p.r(A)p.r(U)p.r(U)p.r(C)p.r(C)p.r(G)p.r(C)p.r(G)p.[s4r](U)p.[s4r](A)p.[s4r](C)p.[s4r](G)p.r(T)p.r(T)}$$$RNA1{StrandType:ss}|RNA2{StrandType:as}$	85.6%
RNA1{r(G)p.r(U)p.r(U)p.[fl2r](C)p.r(A)p.r(C)p.r(G)p.r(U)p.r(C)p.r(C)p.[fl2r](U)p.r(A)p.r(C)p.r(C)p.r(C)p.r(C)p.r(U)p.r(U)p.r(U)p.r(T)p.r(T)}|RNA2{r(A)p.r(A)p.r(A)p.r(G)p.r(G)p.r(G)p.r(G)p.[fl2r](U)p.r(A)p.r(G)p.r(G)p.r(A)p.r(C)p.r(G)p.[fl2r](U)p.r(G)p.r(A)p.r(A)p.r(C)p.r(T)p.r(T)}$$$RNA1{StrandType:ss}|RNA2{StrandType:as}$	65%
RNA1{r(G)p.r(G)p.r(A)p.r(C)p.m(U)p.r(A)p.r(C)p.m(U)p.r(A)p.r(A)p.r(C)p.r(C)p.r(U)p.r(C)p.m(C)p.r(A)p.r(G)p.r(U)p.r(U)p.r(T)p.r(T)}|RNA2{r(A)p.r(A)p.r(C)p.m(U)p.r(G)p.r(G)p.r(A)p.r(G)p.r(G)p.r(U)p.m(U)p.r(A)p.r(G)p.m(U)p.r(A)p.r(G)p.r(U)p.r(C)p.r(C)p.r(T)p.r(T)}$$$RNA1{StrandType:ss}|RNA2{StrandType:as}$	69%
RNA1{m(U)p.r(A)p.r(G)p.r(C)p.m(C)p.r(A)p.r(G)p.r(A)p.r(G)p.r(C)p.m(C)p.r(A)p.r(A)p.r(A)p.r(G)p.r(A)p.r(A)p.r(G)p.r(C)p.r(T)p.r(T)}|RNA2{r(G)p.r(C)p.r(U)p.r(U)p.r(C)p.r(U)p.r(U)p.r(U)p.r(G)p.m(G)p.r(C)p.r(U)p.r(C)p.r(U)p.r(G)p.m(G)p.m(C)p.m(U)p.r(A)p.r(T)p.r(T)}$$$RNA1{StrandType:ss}|RNA2{StrandType:as}$	85%
RNA1{[s4r](A)p.[s4r](A)p.[s4r](A)p.[s4r](C)p.r(A)p.r(U)p.r(G)p.r(C)p.r(A)p.r(G)p.r(A)p.r(A)p.r(A)p.r(A)p.r(U)p.r(G)p.r(C)p.r(U)p.r(G)p.r(T)p.r(T)}|RNA2{r(C)p.r(A)p.r(G)p.r(C)p.r(A)p.r(U)p.r(U)p.r(U)p.r(U)p.r(C)p.r(U)p.r(G)p.r(C)p.r(A)p.r(U)p.r(G)p.r(U)p.r(U)p.r(U)p.r(T)p.r(T)}$$$RNA1{StrandType:ss}|RNA2{StrandType:as}$	70.4%
RNA1{r(A)p.r(U)p.r(C)p.r(U)p.r(G)p.r(A)p.r(A)p.r(G)p.r(A)p.r(A)p.r(G)p.r(G)p.r(A)p.r(G)p.r(A)p.r(A)p.r(A)p.r(A)p.r(A)p.[lna](T)p.[lna](T)}|RNA2{[lna](T)p.r(U)p.r(U)p.r(U)p.r(U)p.r(C)p.r(U)p.r(C)p.r(C)p.r(U)p.r(U)p.r(C)p.r(U)p.r(U)p.r(C)p.r(A)p.r(G)p.r(A)p.r(U)p.[lna](T)p.[lna](T)}$$$RNA1{StrandType:ss}|RNA2{StrandType:as}$	52% and 63%
RNA1{r(G)p.r(U)p.r(A)p.r(U)p.r(G)p.r(A)p.r(C)p.r(C)p.r(G)p.r(A)p.r(C)p.r(U)p.r(A)p.r(C)p.r(G)p.r(C)p.r(G)p.r(U)p.r(A)p.r(T)p.r(T)}|RNA2{r(U)p.r(U)p.r(C)p.r(A)p.r(G)p.r(U)p.r(G)p.r(U)p.r(G)p.r(A)p.r(U)p.r(G)p.r(A)p.r(C)p.r(A)p.[una](C)p.r(U)p.r(U)p.r(G)p.r(T)p.r(T)}$$$RNA1{StrandType:ss}|RNA2{StrandType:as}$	29%
RNA1{r(G)p.r(A)p.r(C)p.r(G)p.[hna](U)p.r(A)p.r(A)p.[hna](A)p.r(C)p.r(G)p.[hna](G)p.r(C)p.r(C)p.[hna](A)p.r(C)p.r(A)p.r(A)p.r(G)p.r(U)p.[hna](U)p.d(T)}|RNA2{[fl2r](A)p.m(C)p.[fl2r](U)p.m(U)p.[fl2r](G)p.m(U)p.[fl2r](G)p.m(G)p.[fl2r](C)p.m(C)p.[fl2r](G)p.m(U)p.[fl2r](U)p.m(U)p.[fl2r](A)p.m(C)p.[fl2r](G)p.m(U)p.[fl2r](C)p.m(G)p.[fl2r](C)}$$$RNA1{StrandType:ss}|RNA2{StrandType:as}$	13.2%
RNA1{r(A)p.r(A)p.r(A)p.r(C)p.m(C)p.r(U)p.m(C)p.r(A)p.r(G)p.r(C)p.r(C)p.r(C)p.m(U)p.r(A)p.r(A)p.r(C)p.r(G)p.r(G)p.r(U)p.r(T)p.r(T)}|RNA2{r(A)p.r(C)p.r(C)p.r(G)p.r(U)p.m(U)p.r(A)p.r(G)p.r(G)p.r(G)p.r(C)p.m(U)p.r(G)p.r(A)p.r(G)p.r(G)p.r(U)p.r(U)p.r(U)p.r(T)p.r(T)}$$$RNA1{StrandType:ss}|RNA2{StrandType:as}$	79%

Reference: the OligoGym collection
